Key:
[1] = test system: a-syn; assay: Sequential extraction/western blot of a-syn in FTI-treated A53T iPSn; format: cell-based, human; settings: 5 nM, 7d
Method: FIGS. 6A, 6B, 6C, 6D, 6E, 6F, and 6G. FTIs enhance lysosomal GCase activity and reduce pathological a-syn by blocking ykt6 farnesylation. 6A) GCase activity in FTI-treated A53T iPSn at d80 (LNK-754 5 nM, 5d). 6B) GCase activity in FTI-treated A53T iPSn expressing empty vector (vect) or ykt6-CS (n=4). 6C) Lysosomal GCase activity was assessed in FTI-treated SHSY5Y cells transfected with scrambled or ykt6 shRNA (KD) (n=3). 6D) Quantification of Triton X-100 soluble (T-sol) a-syn by western blot from FTI-treated A53T iPSn (5 nM, 7d). *, non-specific band. (n=3). 6E) Quantification of insoluble a-syn from A53T iPSn as in D (n=3). 6F) Insoluble a-syn in FTI-treated H4 cells (5 nM, 5 days) transfected with either scrambled or ykt6 shRNA (n=6). 6G) Neuron viability was assessed in FTI-treated A53T iPSn (5 nM, 14d from d86-d100) by quantification of neurofilament protein. Right, neuron viability in FTI-treated A53T iPSn expressing empty vector or ykt6-CS (n=4). Values are the mean+/−SEM, *p<0.05, **p<0.01, ***p<0.001.
Sequential biochemical extraction for the analysis of pathological a-synuclein. […] Protein concentration was measured by BCA assay (Pierce). […]
Western blot analysis. […] The blots were washed as before and scanned/analyzed using an Odyssey infrared imaging system with Image Studio Software. […]

[2] = test system: a-syn; assay: FTI treatment of wild-type mice: a-syn levels in cortex; format: in vivo; settings: daily i.p. 0.9 mg/kg, 14 days
Method: FIGS. 15A, 15B, 15C, 15D, 15E, and 15F. FTI treatment of wild-type mice enhances ykt6 SNARE complexes, lysosomal activity, and reduces a-syn. 15A) Wild-type mice (C57Bl/6) were i.p. injected daily with FTI for 14 days at 0.9 mg/kg and compared to vehicle injected mice. Extracts from the cortex were analyzed for cytosolic (cyt) and membrane (mem) distribution of ykt6 (veh, n=5; FTI, n=6). 15B) Representative gel filtration/western blot analysis of cortical extracts of veh or FTI injected wild-type mice. Inputs are shown on the left. NSE indicates equal column loading. 15C) Quantification of ykt6 and STX5 complexes (ca. 120A) from gel filtration analysis in C (n=4 mice). Fraction 1 corresponds to complexes at 120A, while fractions 7-9 correspond to ykt6 monomers at 22-14 A. 15D) The levels of post ER (endo H resistant) GCase were analyzed by western blot and post ER/ER ratios were quantified from the cortex of FTI treated mice (veh, n=5; FTI, n=6). 15E) GCase activity was assessed in cortical lysates and normalized to total protein (veh, n=4; FTI, n=6). 15F) a-Syn levels were quantified from cytosolic or membrane isolated fractions from the cortex of wild-type FTI treated mice (veh, n=4; FTI, n=6). For all quantifications, values are the mean+/−SEM, *p<0.05.
Treatment of C57Bl/6 and DASYN53 mice with farnesyltransferase inhibitors. […]

[3] = test system: ykt6; assay: Ykt6 in red blood cells of FTI-treated mice; format: in vivo; settings: WT mice
Text: FIG. 20. Ykt6 in red blood cells of human and mice. A) Fractionation of RBCs/western blot of ykt6. Markers indicate efficient separation of cytosol (GAPDH) and membrane (Ank, Ankyrin-1). […] B) Ykt6 from RBCs of nTg of symptomatic 12 mo old A53T mice (ref 12) (n=3-5).
(See FIG. 20A). […] (See FIG. 20C).

C#Cc1cccc(-c2cc(=O)n(C)c3ccc([C@](O)(c4ccc(Cl)cc4)c4cncn4C)cc23)c1 [LNK-754]
soluble and insoluble levels of a-syn (C20, syn303) [1]: reduced
a-syn levels [2]: reduced a-syn levels
membrane Ykt6 in red blood cells [3]: increases membrane Ykt6
membrane Ykt6 in red blood cells ([3]; listed as FTI): activation of ykt6 in red blood cells

From US12226410B2, “Methods for enhancing cellular clearance of pathological molecules via activation of the cellular protein ykt6” (NORTHWESTERN UNIVERSITY, priority 2019, dated 2025)
